In brackets after ≈: the same amount, converted by molar mass.
Experiments:
[1] = tested on: SARS-CoV-2 pseudovirus entry in ACE2 expressing cells; format: cell-based
[2] = tested on: SARS-CoV-2 isolate USA-WA1/2020; assay: microbe, parasite or virus in culture; format: cell-based; conditions: Severe acute respiratory syndrome coronavirus 2, A549, read-out: EC50 against SARS-CoV-2 isolate USA-WA1/2020 in A549 overexpressing ACE2

| SMILES | level of SARS-CoV-2 pseudovirus entry, varying concentrations (FIG. 15A) [1] | viral infection (GFP positive cells per image field) [1] | EC50 [2] [mg/L] | level of SARS-CoV-2 pseudovirus entry, varying concentrations (diminazene, cetirizine, labetalol graph) [1] |
| --- | --- | --- | --- | --- |
| CN1CCCC(n2nc(Cc3ccc(Cl)cc3)c3ccccc3c2=O)CC1 (centres unmarked) [azelastine] | significantly lowered the level of SARS-CoV-2 pseudovirus entry | substantially reduced viral infection |  |  |
| CN(C)CCC(c1ccc(Cl)cc1)c1ccccn1 (centres unmarked) [chlorpheniramine] |  | reduced viral infection |  |  |
| OCCOCCN1CCN(C(c2ccccc2)c2ccc(Cl)cc2)CC1 (centres unmarked) [hydroxyzine] | significantly lowered the level of SARS-CoV-2 pseudovirus entry | substantially reduced viral infection | 27.3 (≈ 72.9 µM) |  |
| CN(C)CCOC(c1ccccc1)c1ccccc1 [diphenhydramine] |  | substantially reduced viral infection |  |  |
| N=C(N)c1ccc(/N=N/Nc2ccc(C(=N)N)cc2)cc1 [diminazene] |  | reduced viral infection |  | significantly lowered the level of SARS-CoV-2 pseudovirus entry |
| O=C(O)COCCN1CCN(C(c2ccccc2)c2ccc(Cl)cc2)CC1 (centres unmarked) [cetirizine] |  | reduced viral infection |  | significantly lowered the level of SARS-CoV-2 pseudovirus entry |
